Laboratory results: patent publication US8501770B2 (ArQule, Inc., priority 2009, dated 2013)

Target: Full-length inactive AKT1 (Homo sapiens, UniProt P31749)
Test: Inactive Akt Alpha Screen Assay
Type: biochemical
Conditions: values not marked with "*": AlphaScreen assay; read-out: Akt1 IC50, (AlphaScreen)
Procedure: AKT1 activity was assayed using the GSK3-derived biotinylated peptide substrate, crosstide (biotin-[…]), and AlphaScreen™ (Amplified Luminescent Proximity Homogeneous Assay) technology. AKT1 activation was achieved by the addition of the activating kinases PDK1 and MAPKAPK2, lipid vesicles, and ATP. The extent of peptide phosphorylation was determined using a phospho-AKT substrate antibody and acceptor beads conjugated to Protein A and donor beads conjugated to streptavidin that bind to the biotin on the peptide. Excitation of the donor beads converted ambient oxygen to excited singlet oxygen which, when in close proximity to acceptor beads, reacted with acceptor beads resulting in signal amplification.
Assay plates were incubated for 90 minutes at room temperature in the dark, and the plates were read on a Perkin Elmer Envision Multilabel plate reader (excitation wavelength: […], emission wavelength: 570 nm).

Full-length inactive AKT1, sequence (P31749 whole entry): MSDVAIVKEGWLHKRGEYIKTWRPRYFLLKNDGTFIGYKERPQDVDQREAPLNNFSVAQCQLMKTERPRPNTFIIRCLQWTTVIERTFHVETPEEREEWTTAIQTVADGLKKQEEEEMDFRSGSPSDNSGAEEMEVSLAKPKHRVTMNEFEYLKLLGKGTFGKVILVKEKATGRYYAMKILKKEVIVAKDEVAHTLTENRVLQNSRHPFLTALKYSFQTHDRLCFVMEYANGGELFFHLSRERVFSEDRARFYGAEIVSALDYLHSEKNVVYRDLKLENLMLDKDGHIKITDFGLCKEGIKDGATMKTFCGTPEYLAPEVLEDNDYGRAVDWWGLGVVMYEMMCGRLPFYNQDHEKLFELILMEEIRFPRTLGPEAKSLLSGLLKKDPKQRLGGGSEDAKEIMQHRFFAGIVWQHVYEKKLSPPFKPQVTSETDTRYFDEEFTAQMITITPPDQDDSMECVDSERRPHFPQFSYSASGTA

Row | Structure (SMILES) | IC50 [nM]
1 | COc1cccc(S(=O)(=O)NCc2ccc(-n3c(-c4cccnc4N)nc4cc(Br)cnc43)cc2)c1 [Example 149, N-{4-[2-(2-aminopyridin-3-yl)-6-bromo-3H-imidazo[4,5-b]pyridin-3-yl]benzyl}-3-methoxybenzenesulfonamide] | 260
2 | Nc1ncccc1-c1nc2cc(Br)cnc2n1-c1ccc(CNS(=O)(=O)c2ccc(F)c(Cl)c2)cc1 [Example 150, N-{4-[2-(2-aminopyridin-3-yl)-6-bromo-3H-imidazo[4,5-b]pyridin-3-yl]benzyl}-3-chloro-4-fluorobenzenesulfonamide] | 2300
3 | Nc1ncccc1-c1nc2cc(Br)cnc2n1-c1ccc(CNS(=O)(=O)C2CCCCC2)cc1 [Example 151, N-{4-[2-(2-aminopyridin-3-yl)-6-bromo-3H-imidazo[4,5-b]pyridin-3-yl]benzyl}cyclohexanesulfonamide] | 340
4 | CC(C)CS(=O)(=O)NCc1ccc(-n2c(-c3cccnc3N)nc3cc(Br)cnc32)cc1 [Example 152, N-{4-[2-(2-aminopyridin-3-yl)-6-bromo-3H-imidazo[4,5-b]pyridin-3-yl]benzyl}-2-methylpropane-1-sulfonamide] | 240
5 | CCCCS(=O)(=O)NCc1ccc(-n2c(-c3cccnc3N)nc3cc(Br)cnc32)cc1 [Example 153, N-{4-[2-(2-aminopyridin-3-yl)-6-bromo-3H-imidazo[4,5-b]pyridin-3-yl]benzyl}butane-1-sulfonamide] | 440
6 | Cc1noc(C)c1S(=O)(=O)NCc1ccc(-n2c(-c3cccnc3N)nc3cc(Br)cnc32)cc1 [Example 154, N-{4-[2-(2-aminopyridin-3-yl)-6-bromo-3H-imidazo[4,5-b]pyridin-3-yl]benzyl}-3,5-dimethylisoxazole-4-sulfonamide] | 1200
7 | Nc1ncccc1-c1nc2cc(Br)cnc2n1-c1ccc(CNS(=O)(=O)c2cccs2)cc1 [Example 155, N-{4-[2-(2-aminopyridin-3-yl)-6-bromo-3H-imidazo[4,5-b]pyridin-3-yl]benzyl}thiophene-2-sulfonamide] | 140
8 | Nc1ncccc1-c1nc2cc(Br)cnc2n1-c1ccc(CNS(=O)(=O)c2cccc(Cl)c2)cc1 [Example 156, N-{4-[2-(2-aminopyridin-3-yl)-6-bromo-3H-imidazo[4,5-b]pyridin-3-yl]benzyl}-3-chlorobenzenesulfonamide] | 1200

Same assay, conditions: values not marked with "*"; read-out: Akt1 IC50, (AlphaScreen)

Row | Structure (SMILES) | IC50 [nM]
9 | Nc1ncccc1-c1nc2cc(Br)cnc2n1-c1ccc(CNS(=O)(=O)c2ccc(F)cc2)cc1 [Example 158, N-{4-[2-(2-aminopyridin-3-yl)-6-bromo-3H-imidazo[4,5-b]pyridin-3-yl]benzyl}-4-fluorobenzenesulfonamide] | 490
10 | Nc1ncccc1-c1nc2cc(Br)cnc2n1-c1ccc(CNS(=O)(=O)c2c(F)cccc2F)cc1 [Example 159, N-{4-[2-(2-aminopyridin-3-yl)-6-bromo-3H-imidazo[4,5-b]pyridin-3-yl]benzyl}-2,6-difluorobenzenesulfonamide] | 200
11 | Nc1ncccc1-c1nc2cc(Br)cnc2n1-c1ccc(CNS(=O)(=O)c2cccc(F)c2)cc1 [Example 160, N-{4-[2-(2-aminopyridin-3-yl)-6-bromo-3H-imidazo[4,5-b]pyridin-3-yl]benzyl}-3-fluorobenzenesulfonamide] | 330
12 | Nc1ncccc1-c1nc2cc(Br)cnc2n1-c1ccc(CNS(=O)(=O)c2ccc3c(c2)CCO3)cc1 [Example 161, N-{4-[2-(2-aminopyridin-3-yl)-6-bromo-3H-imidazo[4,5-b]pyridin-3-yl]benzyl}-2,3-dihydro-1-benzofuran-5-sulfonamide] | 290
13 | Cc1ccc(S(=O)(=O)NCc2ccc(-n3c(-c4cccnc4N)nc4cc(Br)cnc43)cc2)cc1 [Example 162, N-{4-[2-(2-aminopyridin-3-yl)-6-bromo-3H-imidazo[4,5-b]pyridin-3-yl]benzyl}-4-methylbenzenesulfonamide] | 450
14 | Cc1cccc(S(=O)(=O)NCc2ccc(-n3c(-c4cccnc4N)nc4cc(Br)cnc43)cc2)c1 [Example 163, N-{4-[2-(2-aminopyridin-3-yl)-6-bromo-3H-imidazo[4,5-b]pyridin-3-yl]benzyl}-3-methylbenzenesulfonamide] | 400
15 | Nc1ncccc1-c1nc2cc(Br)cnc2n1-c1ccc(CNS(=O)(=O)c2cccc3cccnc23)cc1 [Example 164, N-{4-[2-(2-aminopyridin-3-yl)-6-bromo-3H-imidazo[4,5-b]pyridin-3-yl]benzyl}quinoline-8-sulfonamide] | 620
16 | N#Cc1ccc(S(=O)(=O)NCc2ccc(-n3c(-c4cccnc4N)nc4cc(Br)cnc43)cc2)cc1 [Example 165, N-{4-[2-(2-aminopyridin-3-yl)-6-bromo-3H-imidazo[4,5-b]pyridin-3-yl]benzyl}-4-cyanobenzenesulfonamide] | 2100
17 | Cn1cnc(S(=O)(=O)NCc2ccc(-n3c(-c4cccnc4N)nc4cc(Br)cnc43)cc2)c1 [Example 166, N-{4-[2-(2-aminopyridin-3-yl)-6-bromo-3H-imidazo[4,5-b]pyridin-3-yl]benzyl}-1-methyl-1H-imidazole-4-sulfonamide] | 440
18 | Cc1ccc(C)c(S(=O)(=O)NCc2ccc(-n3c(-c4cccnc4N)nc4cc(Br)cnc43)cc2)c1 [Example 167, N-{4-[2-(2-aminopyridin-3-yl)-6-bromo-3H-imidazo[4,5-b]pyridin-3-yl]benzyl}-2,5-dimethylbenzenesulfonamide] | 480
19 | Nc1ncccc1-c1nc2cc(Br)cnc2n1-c1ccc(CNS(=O)(=O)C2CC2)cc1 [Example 168, N-{4-[2-(2-aminopyridin-3-yl)-6-bromo-3H-imidazo[4,5-b]pyridin-3-yl]benzyl}cyclopropanesulfonamide] | 170
20 | Nc1ncccc1-c1nc2cc(Br)cnc2n1-c1ccc(CNS(=O)(=O)c2ccsc2)cc1 [Example 169, N-{4-[2-(2-aminopyridin-3-yl)-6-bromo-3H-imidazo[4,5-b]pyridin-3-yl]benzyl}thiophene-3-sulfonamide] | 190
21 | CCS(=O)(=O)NCc1ccc(-n2c(-c3cccnc3N)nc3cc(Br)cnc32)cc1 [Example 170, N-{4-[2-(2-aminopyridin-3-yl)-6-bromo-3H-imidazo[4,5-b]pyridin-3-yl]benzyl}ethanesulfonamide] | 490
22 | Nc1ncccc1-c1nc2cc(Br)cnc2n1-c1ccc(CNS(=O)(=O)c2ccccc2F)cc1 [Example 171, N-{4-[2-(2-aminopyridin-3-yl)-6-bromo-3H-imidazo[4,5-b]pyridin-3-yl]benzyl}-2-fluorobenzenesulfonamide] | 350
23 | CC(C)(C)c1ccc(C(=O)NCc2ccc(-n3c(-c4cccnc4N)nc4cccnc43)cc2)cc1 [Example 172, N-{4-[2-(2-aminopyridin-3-yl)-3H-imidazo[4,5-b]pyridin-3-yl]benzyl}-4-tert-butylbenzamide] | 99
24 | Nc1ncccc1-c1nc2cc(-c3ccc(CO)cc3)cnc2n1-c1ccc(CNC(=O)c2ccccc2)cc1 [Example 173, N-(4-{2-(2-aminopyridin-3-yl)-6-[4-(hydroxymethyl)phenyl]-3H-imidazo[4,5-b]pyridin-3-yl}benzyl)benzamide] | 26
25 | CC(=O)Nc1cccc(-c2cnc3c(c2)nc(-c2cccnc2N)n3-c2ccc(CNC(=O)c3ccccc3)cc2)c1 [Example 174, N-(4-{6-[3-(acetylamino)phenyl]-2-(2-aminopyridin-3-yl)-3H-imidazo[4,5-b]pyridin-3-yl}benzyl)benzamide] | 38
26 | COc1ccc(Nc2ccc3nc(-c4cccnc4N)n(-c4ccc(CNC(=O)c5ccccc5)cc4)c3n2)cc1 [Example 175] | 600
27 | COc1ccc(NC(=O)NCc2ccc(-n3c(-c4cccnc4N)nc4cc(F)cnc43)cc2)cc1 [Example 176, 1-{4-[2-(2-aminopyridin-3-yl)-6-fluoro-3H-imidazo[4,5-b]pyridin-3-yl]benzyl}-3-(4-methoxyphenyl)urea] | 1200
28 | COc1ccc(S(=O)(=O)NCc2ccc(-n3c(-c4cccnc4N)nc4cc(Br)cnc43)cc2)cc1 [Example 177, N-{4-[2-(2-aminopyridin-3-yl)-6-bromo-3H-imidazo[4,5-b]pyridin-3-yl]benzyl}-4-methoxybenzenesulfonamide] | 2100
29 | Cc1ccnc(NC(=O)c2ccc(-n3c(-c4cccnc4N)nc4cccnc43)cc2)c1 [Example 179, 4-[2-(2-aminopyridin-3-yl)-3H-imidazo[4,5-b]pyridin-3-yl]-N-(4-methylpyridin-2-yl)benzamide] | 530
30 | Cc1ccc2cc(NC(=O)c3ccc(-n4c(-c5cccnc5N)nc5cccnc54)cc3)ccc2n1 [Example 180, 4-[2-(2-aminopyridin-3-yl)-3H-imidazo[4,5-b]pyridin-3-yl]-N-(2-methylquinolin-6-yl)benzamide] | 590
31 | CC(=O)Nc1ccc(NC(=O)c2ccc(-n3c(-c4cccnc4N)nc4cccnc43)cc2)cc1 [Example 181, N-[4-(acetylamino)phenyl]-4-[2-(2-aminopyridin-3-yl)-3H-imidazo[4,5-b]pyridin-3-yl]benzamide] | 840
32 | Nc1ncccc1-c1nc2cccnc2n1-c1ccc(C(=O)Nc2ccc3c(c2)C(=O)OC3)cc1 [Example 182, 4-[2-(2-aminopyridin-3-yl)-3H-imidazo[4,5-b]pyridin-3-yl]-N-(3-oxo-1,3-dihydro-2-benzofuran-5-yl)benzamide] | 1100
33 | N#Cc1cccc(NC(=O)c2ccc(-n3c(-c4cccnc4N)nc4cccnc43)cc2)c1 [Example 183, 4-[2-(2-aminopyridin-3-yl)-3H-imidazo[4,5-b]pyridin-3-yl]-N-(3-cyanophenyl)benzamide] | 1500
